Reference: publication PMC5637554 (MedChemComm, 2017)

Target: MDM2 (Homo sapiens, UniProt Q00987)
Assay: Fluorescence polarization
Type: binding
Details: FP; 4-chloro-phenyl anchor instead of 6-chloro-indole

MDM2, sequence (Q00987 whole entry): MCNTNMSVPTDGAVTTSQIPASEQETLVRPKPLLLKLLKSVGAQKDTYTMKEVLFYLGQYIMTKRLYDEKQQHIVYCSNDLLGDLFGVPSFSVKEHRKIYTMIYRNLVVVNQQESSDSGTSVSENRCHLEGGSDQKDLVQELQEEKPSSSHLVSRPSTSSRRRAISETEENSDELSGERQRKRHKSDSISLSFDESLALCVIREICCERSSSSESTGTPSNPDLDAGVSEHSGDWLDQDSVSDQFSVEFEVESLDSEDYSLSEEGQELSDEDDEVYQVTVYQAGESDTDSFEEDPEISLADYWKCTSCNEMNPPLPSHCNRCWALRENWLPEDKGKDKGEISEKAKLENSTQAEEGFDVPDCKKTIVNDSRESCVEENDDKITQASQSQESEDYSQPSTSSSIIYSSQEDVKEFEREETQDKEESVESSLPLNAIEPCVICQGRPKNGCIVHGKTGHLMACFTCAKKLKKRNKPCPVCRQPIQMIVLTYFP

CC(C)(C)NC(=O)C(c1ccc(Cl)cc1)N1C(=O)CC1c1ccc(OCc2ccccc2)cc1 (stereo not shown) [Compound 2g]
activity against MDM2/X: did not show any activity
